In US12492229B2, “Antimicrobial peptides” (Donald Danforth Plant Science Center, priority 2019, dated 2025):

Assays:
A. tumefaciens = assay: In vitro antibacterial activity; type: cell-based
Phytophthora capsici = type: cell-based; conditions: Pichia pastoris-expressed peptide
Botrytis cinerea = type: cell-based; conditions: Pichia pastoris-expressed peptide
Fusarium oxysporum = type: cell-based
Alternaria brassicicola = type: cell-based; conditions: Pichia pastoris-expressed peptide
A. rhizogenes = assay: In vitro antibacterial activity; type: cell-based, Agrobacterium rhizogenes
Fusarium graminearum = type: cell-based; conditions: Pichia pastoris-expressed peptide

Q: Which results are given for “SbDef1: endogenous Sorghum bicolor defensin antifungal peptide, 49 amino acids, SEQ ID NO: 1; expressed in Pichia pastoris (VHVCTMRNKFFHGPCMSNKNCAASCIQHRIGGGGYCSSRRQICKCTLQC; Sorghum bicolor)”?
A: antibacterial activity (A. tumefaciens): does not exhibit any antibacterial activity; IC50 (Phytophthora capsici): 2000 to 3000 nM; MLC (minimal lethal concentration) (Phytophthora capsici): 6 µM; IC50 (Botrytis cinerea): 1500 to 2000 nM; MLC (minimal lethal concentration) (Botrytis cinerea): 3 µM; IC50 (Fusarium oxysporum): 200 to 500 nM; MLC (minimal lethal concentration) (Fusarium oxysporum): 0.75 µM; IC50 (Alternaria brassicicola): 1500 to 2000 nM; MLC (minimal lethal concentration) (Alternaria brassicicola): 6 µM; antibacterial activity (A. rhizogenes): does not exhibit any antibacterial activity; IC50 (Fusarium graminearum): 2000 to 3000 nM; MLC (minimal lethal concentration) (Fusarium graminearum): 6 µM
